Read-outs that look alike come from different tables or passages of the source.
Key:
Format in all cases: cell-based, human
[1] = test system: RKO cells; test: Proliferation inhibition, CellTiter-Glo, RKO; conditions: Table D-1, RKO (BRAF V600E), 3 days, read-out: Prolif. (proliferation EC50)
Method: (§1) All cancer cell lines (A375, A101D, A2058, RKO, HT29 SK-MEL 30, IPC298, HepG2, HCT-116, Lovo, SW620, SW480, NCI-H358, NCI-H2122, Calu-6, NCIH2087, NCIH1755, NCIH1666 and Mewo) were obtained from ATCC and cultured in RPM1-1640 medium (Gibco) supplemented with 5% heat inactivated fetal bovine serum (FBS, Wisent) at 37° C. under 5% CO2. Cells were maintained in T175 flasks (Greiner). They were passaged by removing the culture medium, washing once in 10 mL of room temperature Phosphate Buffered Saline (PBS; Wisent) and incubating at 37° C. with 2 mL of 0.05% Trypsin (Thermo-Fisher). Trypsin was then inactivated by adding complete growth medium and the cells were then replated in a T175 culture dish at the appropriate dilution. All cell lines were routinely tested for mycoplasma contamination. Tissue type and mutational status of each cell line can be found in Table B.
(§2) CellTiter-Glo® viability analysis was conducted on cells plated in 100 μL of complete RPMI-1640 growth medium in 96-well flat-bottomed white opaque plates (Greiner or Croning) at a density indicated in Table E (for each CCL, number of cells plated per well of a 96-well plate to perform the CellTiter-Glo® cell viability assay). The cell density in cells/cm^2 would correspond to cell number divided by the area of one well of a 96-well plate (0.32 cm^2). […]
(§3) After 3 days of incubation, the growth media were removed by aspiration and 60 μL of diluted CellTiter-Glo® reagent (10 μL CellTiter-Glo® reagent+50 μL of PBS) was added to each well. […] Luminescence signals were then acquired on a Synergy Neo2 plate reader (Biotek).
(§4) The effect of each compound dilution on the proliferation of cancer cell lines was expressed in % inhibition and calculated as follows. […]
(§5) The ability of each compound to inhibit proliferation was expressed as a EC50 value obtained by plotting the effect values for each data point of a dilution series and fitting the obtained curves using a log(agonist) versus response—variable slope (four parameters) function using GraphPadPrism (V7.0) or Dotmatics Screening Ultra platform.

[2] = test system: HepG2 cells; test: Proliferation inhibition, CellTiter-Glo, HepG2; conditions: Table D-1, HepG2 (NRAS-Q61L), 3 days, read-out: Prolif. (proliferation EC50)
Method: as §1, §2, §3, §4, §5

[3] = test system: NCI-H358 cells; test: Proliferation inhibition, CellTiter-Glo, NCI-H358; conditions: Table D-2, NCI-H358 (KRAS-G12C), 3 days, read-out: Prolif. (proliferation EC50)
Method: as §1, §2, §3, §4, §5

[4] = test system: Calu6 cells; test: Proliferation inhibition, CellTiter-Glo, Calu-6; conditions: Table D-2, Calu6 (KRAS Q61K), 3 days, read-out: Prolif. (proliferation EC50)
Method: as §1, §2, §3, §4, §5

[5] = test system: SW480 cells; test: Proliferation inhibition, CellTiter-Glo, SW480; conditions: Table D-2, SW480 (KRAS G12D), 3 days, read-out: Prolif. (proliferation EC50)
Method: as §1, §2, §3, §4, §5

[6] = test system: NCIH2087 cells; test: Proliferation inhibition, CellTiter-Glo, NCIH2087; conditions: Table D-2, NCIH2087 (BRAF L597V; KRAS Q61K), 3 days, read-out: Prolif. (proliferation EC50)
Method: as §1, §2, §3, §4, §5

EC50 [2]	EC50 [3]	EC50 [4]	EC50 [5]	EC50 ([2]; Homo sapiens, 72 h)	EC50 ([3]; Homo sapiens, 72 h)	EC50 ([4]; Homo sapiens, Calu-6, 72 h)	EC50 ([5]; Homo sapiens, 72 h)	SMILES	EC50 [1]	EC50 [6]	EC50 ([1]; Homo sapiens, 72 h)	EC50 ([6]; Homo sapiens, NCI-H2087, 72 h)
< 300 nM	< 300 nM	< 300 nM	< 300 nM	–	–	–	–	Cc1c(F)cccc1S(=O)(=O)Nc1ccc(F)c(Nc2ncnc3sc(-n4cc(C(=O)N5C6CCC5CN(C)C6)c5ccccc54)nc23)c1F [Example 44]	< 300 nM	< 300 nM	–	–
< 300 nM	< 300 nM	< 300 nM	< 300 nM	–	–	–	–	N#CC1(c2cccc3c2ncn3-c2nc3c(Nc4c(F)ccc(NS(=O)(=O)c5cccc(Cl)c5Cl)c4F)ncnc3s2)CC1 [Example 122]	< 300 nM	< 300 nM	–	–
–	–	–	–	< 300 nM	300 to 3000 nM	< 300 nM	300 to 3000 nM	Cc1ccc2c(Nc3cccc(Cl)c3F)nccc2c1NC(=O)c1csc2c(N)ncnc12 [Belvarafenib, reference compound]	–	–	< 300 nM	< 300 nM
